According to ChEMBL document CHEMBL1201862, “PubChem BioAssay data set” (2004):
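Compound exposure: 48 hours, 5 concentrations, 96-well plates. GI50 is the concentration that inhibits growth by half.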 Activity calls are given as the source filed them. Cut-off read from the data, not from the text of the source: active = GI50 up to about 1.1 µM and inactive = higher. *1 amine or outer side, *2 acyl side, *3 side chain or, on linkers, in order; H or OH if unused. Where a SMILES comes first, the peptide text is derived from it. [ ]: non-standard residue; d: D form. The star is where a group is joined. ξ: configuration not given here. X43 = CCC(=O)CC(O)CC(C)CC(N[*:1])C(=O)[*:2]; ξLeu(3ξ-OH) = CC(C)C(O)C(N)C(=O)O; ξPro(4ξ-Me) = CC1CNC(C(=O)O)C1; X42 = CCC(C)/C=C/C(=O)*; Aib = CC(C)(N)C(=O)O; X44 = CC(CN(C)C)N*; βAla = NCCC(=O)O

How the values were obtained:
Assay in all cases: DTP human tumour cell line panel, 48 h
[1] = test system: SNB-19
[2] = test system: SK-MEL-2
[3] = test system: UACC-62
[4] = test system: T47D
[5] = test system: MDA-MB-435
[6] = test system: RPMI-8226
[7] = test system: OVCAR-3
[8] = test system: UO-31
[9] = test system: NCI-H226
[10] = test system: K562
[11] = test system: A549
[12] = test system: CAKI-1
[13] = test system: A498
[14] = test system: 786-0
[15] = test system: DU-145
[16] = test system: PC-3
[17] = test system: SW-620
[18] = test system: HOP-92
[19] = test system: SK-MEL-5
[20] = test system: HCT-116
[21] = test system: U-251
[22] = test system: SF-295
[23] = test system: MCF7
[24] = test system: ACHN
[25] = test system: M14
[26] = test system: Hs-578T
[27] = test system: EKVX
[28] = test system: HCT-15
[29] = test system: NCI-H522
[30] = test system: SN12C
[31] = test system: NCI/ADR-RES
[32] = test system: TK-10
[33] = test system: MDA-MB-231
[34] = test system: MDA-N
[35] = test system: NCI-H460
[36] = test system: NCI-H23
[37] = test system: MOLT-4
[38] = test system: IGROV-1
[39] = test system: HOP-62
[40] = test system: SK-MEL-28
[41] = test system: BT-549
[42] = test system: CCRF-CEM
[43] = test system: OVCAR-5
[44] = test system: OVCAR-8
[45] = test system: HL-60
[46] = test system: SK-OV-3
[47] = test system: KM12
[48] = test system: SF-268
[49] = test system: Malme-3M
[50] = test system: SNB-75
[51] = test system: LOX IMVI
[52] = test system: SR
[53] = test system: COLO 205
[54] = test system: HCC 2998
[55] = test system: SF-539
[56] = test system: RXF 393
[57] = test system: OVCAR-4
[58] = test system: HT-29
[59] = test system: UACC-257

SMILES: CCC(=O)CC(O)CC(C)CC(NC(=O)C1CC(C)CN1C(=O)/C=C/C(C)CC)C(=O)NC(C(=O)NC(C)(C)C(=O)NC(CC(C)C)C(=O)NC(CC(C)C)C(=O)NC(C)(C)C(=O)NC(C)(C)C(=O)NCCC(=O)NC(C)CN(C)C)C(O)C(C)C (configuration not stated) (X42-[ξPro(4ξ-Me)][X43][ξLeu(3ξ-OH)][Aib]LL[Aib][Aib][βAla]-X44; configuration not given here)
- GI50 [1]: 11.5 nM (active)
- GI50 [2]: 120 nM (active)
- GI50 [3]: 268 nM (active)
- GI50 [4]: < 5 nM (active)
- GI50 [5]: 74.5 nM (active)
- GI50 [6]: 21.8 nM (active)
- GI50 [7]: 7.4 nM (active)
- GI50 [8]: 5870 nM (inactive)
- GI50 [9]: < 5 nM (active)
- GI50 [10]: 46.9 nM (active)
- GI50 [11]: < 5 nM (active)
- GI50 [12]: 1190 nM (inactive)
- GI50 [13]: 495 nM (active)
- GI50 [14]: 1520 nM (inactive)
- GI50 [15]: 351 nM (active)
- GI50 [16]: 6.32 nM (active)
- GI50 [17]: 143 nM (active)
- GI50 [18]: 88.7 nM (active)
- GI50 [19]: < 5 nM (active)
- GI50 [20]: 23.5 nM (active)
- GI50 [21]: < 5 nM (active)
- GI50 [22]: 25.5 nM (active)
- GI50 [23]: < 5 nM (active)
- GI50 [24]: 611 nM (active)
- GI50 [25]: 615 nM (active)
- GI50 [26]: 13.2 nM (active)
- GI50 [27]: < 5 nM (active)
- GI50 [28]: 5400 nM
- GI50 [29]: < 5 nM (active)
- GI50 [30]: 261 nM (active)
- GI50 [31]: 7080 nM (inactive)
- GI50 [32]: 345 nM (active)
- GI50 [33]: 133 nM (active)
- GI50 [34]: 81.8 nM (active)
- GI50 [35]: 37.4 nM (active)
- GI50 [36]: < 5 nM (active)
- GI50 [37]: 8.87 nM (active)
- GI50 [38]: 74.6 nM (active)
- GI50 [39]: 151 nM (active)
- GI50 [40]: 362 nM (active)
- GI50 [41]: 290 nM (active)
- GI50 [42]: < 5 nM (active)
- GI50 [43]: 313 nM (active)
- GI50 [44]: < 5 nM (active)
- GI50 [45]: 9.51 nM (active)
- GI50 [46]: 341 nM (active)
- GI50 [47]: 41.2 nM (active)
- GI50 [48]: 52.6 nM (active)
- GI50 [49]: 133 nM (active)
- GI50 [50]: 16.5 nM (active)
- GI50 [51]: 199 nM (active)
- GI50 [52]: 28 nM (active)
- GI50 [53]: 13.1 nM (active)
- GI50 [54]: 153 nM (active)
- GI50 [55]: 292 nM (active)
- GI50 [56]: 380 nM (active)
- GI50 [57]: 36.1 nM (active)
- GI50 [58]: 72.8 nM (active)
- GI50 [59]: < 5 nM (active)

SMILES: CCN1CCC(O)(/C=C/c2ccc(C(C)C)cc2)C(C(=O)/C=C/c2ccc(C(C)C)cc2)C1 (configuration not stated)
- GI50 [1]: 3800 nM (inactive)
- GI50 [2]: 3080 nM (inactive)
- GI50 [3]: 4150 nM (inactive)
- GI50 [4]: 2350 nM (inactive)
- GI50 [5]: 2960 nM (inactive)
- GI50 [6]: 697 nM (active)
- GI50 [7]: 2840 nM (inactive)
- GI50 [8]: 2960 nM (inactive)
- GI50 [9]: 2820 nM (inactive)
- GI50 [10]: 2720 nM (inactive)
- GI50 [11]: 3370 nM (inactive)
- GI50 [12]: 4340 nM (inactive)
- GI50 [13]: 6380 nM (inactive)
- GI50 [14]: 1710 nM (inactive)
- GI50 [15]: 3340 nM (inactive)
- GI50 [16]: 3520 nM (inactive)
- GI50 [17]: 2670 nM (inactive)
- GI50 [18]: 1850 nM (inactive)
- GI50 [19]: 4420 nM (inactive)
- GI50 [20]: 1750 nM (inactive)
- GI50 [21]: 2610 nM (inactive)
- GI50 [22]: 2900 nM (inactive)
- GI50 [23]: 2460 nM (inactive)
- GI50 [24]: 1750 nM (inactive)
- GI50 [25]: 3100 nM (inactive)
- GI50 [26]: 2310 nM (inactive)
- GI50 [27]: 2220 nM (inactive)
- GI50 [28]: 2000 nM
- GI50 [29]: 2100 nM (inactive)
- GI50 [30]: 2470 nM (inactive)
- GI50 [31]: 3080 nM (inactive)
- GI50 [32]: 2340 nM (inactive)
- GI50 [33]: 1870 nM (inactive)
- GI50 [34]: 2370 nM (inactive)
- GI50 [35]: 1530 nM (inactive)
- GI50 [36]: 2380 nM (inactive)
- GI50 [37]: 1590 nM (inactive)
- GI50 [38]: 2050 nM (inactive)
- GI50 [39]: 3520 nM (inactive)
- GI50 [40]: 4510 nM (inactive)
- GI50 [41]: 4150 nM (inactive)
- GI50 [42]: 1160 nM (inactive)
- GI50 [43]: 4340 nM (inactive)
- GI50 [44]: 1960 nM (inactive)
- GI50 [45]: 2980 nM (inactive)
- GI50 [46]: 14000 nM (inactive)
- GI50 [47]: 1850 nM (inactive)
- GI50 [48]: 1960 nM (inactive)
- GI50 [49]: 5020 nM (inactive)
- GI50 [50]: 4620 nM (inactive)
- GI50 [51]: 895 nM (active)
- GI50 [52]: 1380 nM (inactive)
- GI50 [53]: 2450 nM (inactive)
- GI50 [54]: 1810 nM (inactive)
- GI50 [55]: 2290 nM (inactive)
- GI50 [56]: 2560 nM (inactive)
- GI50 [57]: 3040 nM (inactive)
- GI50 [58]: 2240 nM (inactive)
- GI50 [59]: 6670 nM (inactive)

SMILES: CC(=O)NNc1nc(C)c(C(/C=C/c2ccc3c(c2)OCO3)=N/Nc2ccccc2)s1
- GI50 [1]: > 100000 nM (inactive)
- GI50 [2]: > 100000 nM (inactive)
- GI50 [3]: > 100000 nM (inactive)
- GI50 [4]: > 100000 nM (inactive)
- GI50 [5]: > 100000 nM (inactive)
- GI50 [6]: > 100000 nM (inactive)
- GI50 [7]: > 100000 nM (inactive)
- GI50 [8]: > 100000 nM (inactive)
- GI50 [9]: > 100000 nM (inactive)
- GI50 [10]: > 100000 nM (inactive)
- GI50 [11]: > 100000 nM (inactive)
- GI50 [12]: > 100000 nM (inactive)
- GI50 [13]: > 100000 nM (inactive)
- GI50 [14]: > 100000 nM (inactive)
- GI50 [15]: > 100000 nM (inactive)
- GI50 [16]: > 100000 nM (inactive)
- GI50 [17]: > 100000 nM (inactive)
- GI50 [18]: > 100000 nM (inactive)
- GI50 [19]: > 100000 nM (inactive)
- GI50 [20]: > 100000 nM (inactive)
- GI50 [21]: > 100000 nM (inactive)
- GI50 [22]: > 100000 nM (inactive)
- GI50 [23]: > 100000 nM (inactive)
- GI50 [24]: > 100000 nM (inactive)
- GI50 [25]: > 100000 nM (inactive)
- GI50 [26]: > 100000 nM (inactive)
- GI50 [27]: > 100000 nM (inactive)
- GI50 [28]: > 100000 nM
- GI50 [29]: > 100000 nM (inactive)
- GI50 [30]: > 100000 nM (inactive)
- GI50 [31]: > 100000 nM (inactive)
- GI50 [32]: > 100000 nM (inactive)
- GI50 [33]: > 100000 nM (inactive)
- GI50 [34]: > 100000 nM (inactive)
- GI50 [35]: > 100000 nM (inactive)
- GI50 [36]: > 100000 nM (inactive)
- GI50 [37]: > 100000 nM (inactive)
- GI50 [38]: > 100000 nM (inactive)
- GI50 [39]: > 100000 nM (inactive)
- GI50 [40]: > 100000 nM (inactive)
- GI50 [41]: > 100000 nM (inactive)
- GI50 [42]: > 100000 nM (inactive)
- GI50 [43]: > 100000 nM (inactive)
- GI50 [44]: > 100000 nM (inactive)
- GI50 [45]: > 100000 nM (inactive)
- GI50 [46]: > 100000 nM (inactive)
- GI50 [47]: > 100000 nM (inactive)
- GI50 [48]: > 100000 nM (inactive)
- GI50 [49]: > 100000 nM (inactive)
- GI50 [50]: > 100000 nM (inactive)
- GI50 [51]: > 100000 nM (inactive)
- GI50 [52]: > 100000 nM (inactive)
- GI50 [53]: > 100000 nM (inactive)
- GI50 [54]: > 100000 nM (inactive)
- GI50 [55]: > 100000 nM (inactive)
- GI50 [56]: > 100000 nM (inactive)
- GI50 [57]: > 100000 nM (inactive)
- GI50 [58]: > 100000 nM (inactive)
- GI50 [59]: > 100000 nM (inactive)
